Assay results as given in ChEMBL document CHEMBL4190336, “Discovery of a Novel Series of 7-Azaindole Scaffold Derivatives as PI3K Inhibitors with Potent Activity” (ACS Med Chem Lett, 2017).

What was measured:
[1] = target: Phosphatidylinositol 4,5-bisphosphate 3-kinase catalytic subunit gamma isoform (Homo sapiens, UniProt P48736)
Description: Inhibition of recombinant full length His-tagged human PI3K p110gamma expressed in baculovirus expression system using PIP2/PS as substrate after 1 hr by ADP-Glo luminescence assay

[2] = tested on: KARPAS-422; assay: Growth inhibition of human KARPAS422 cells by CCK8 assay; type: functional
[3] = tested on: T47D; assay: Growth inhibition of human T47D cells after 72 hrs by SRB assay; type: functional
[4] = tested on: Pfeiffer; assay: Growth inhibition of human Pfeiffer cells by CCK8 assay; type: functional
[5] = tested on: NCI-H460; assay: Growth inhibition of human NCI-H460 cells after 72 hrs by SRB assay; type: functional; conditions: NCI-H460, 72 h
[6] = tested on: MCF7; assay: Growth inhibition of human MCF7 cells after 72 hrs by SRB assay; type: functional; conditions: MCF7, 72 h
[7] = tested on: U-87 MG; assay: Growth inhibition of human U87MG cells after 72 hrs by SRB assay; type: functional, U-87MG ATCC
[8] = target: Phosphatidylinositol 4,5-bisphosphate 3-kinase catalytic subunit beta isoform (Homo sapiens, UniProt P42338); assay: Inhibition of recombinant human PI3K p110beta using PIP2/PS as substrate after 1 hr by ADP-Glo luminescence assay
[9] = target: PI3-kinase p110-delta/p85-alpha (Homo sapiens, UniProt O00329); assay: Inhibition of recombinant human full length His-tagged PI3K p110delta/p85alpha expressed in baculovirus expression system using PIP2/PS as substrate after 1 hr by ADP-Glo luminescence assay
[10] = target: PI3-kinase p110-alpha/p85-alpha (Homo sapiens, UniProt P42336); assay: Inhibition of recombinant full length N-terminal His-tagged human PI3K p110alpha/p85alpha expressed in baculovirus expression system using PIP2/PS as substrate after 1 hr by ADP-Glo luminescence assay
PI3-kinase p110-alpha/p85-alpha, sequence (P27986 whole entry): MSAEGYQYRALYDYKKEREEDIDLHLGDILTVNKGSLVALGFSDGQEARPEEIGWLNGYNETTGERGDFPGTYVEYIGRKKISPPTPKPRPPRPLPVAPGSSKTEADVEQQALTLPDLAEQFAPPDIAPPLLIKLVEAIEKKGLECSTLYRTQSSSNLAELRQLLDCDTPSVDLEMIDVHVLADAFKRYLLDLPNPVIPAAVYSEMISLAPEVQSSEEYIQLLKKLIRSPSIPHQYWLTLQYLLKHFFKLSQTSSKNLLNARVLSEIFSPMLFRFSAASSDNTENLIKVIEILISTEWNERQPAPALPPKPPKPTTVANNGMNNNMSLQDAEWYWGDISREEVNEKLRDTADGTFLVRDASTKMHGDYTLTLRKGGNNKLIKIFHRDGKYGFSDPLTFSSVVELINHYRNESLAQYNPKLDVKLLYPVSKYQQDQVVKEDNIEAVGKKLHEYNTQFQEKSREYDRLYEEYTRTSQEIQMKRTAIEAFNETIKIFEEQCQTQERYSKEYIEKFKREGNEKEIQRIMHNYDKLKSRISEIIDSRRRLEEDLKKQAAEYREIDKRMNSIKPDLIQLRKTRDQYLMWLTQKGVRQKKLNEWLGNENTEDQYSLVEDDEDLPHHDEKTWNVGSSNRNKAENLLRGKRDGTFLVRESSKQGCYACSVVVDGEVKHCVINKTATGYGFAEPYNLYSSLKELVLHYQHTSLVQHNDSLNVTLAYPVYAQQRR
PI3-kinase p110-alpha/p85-alpha, sequence (P42336 whole entry): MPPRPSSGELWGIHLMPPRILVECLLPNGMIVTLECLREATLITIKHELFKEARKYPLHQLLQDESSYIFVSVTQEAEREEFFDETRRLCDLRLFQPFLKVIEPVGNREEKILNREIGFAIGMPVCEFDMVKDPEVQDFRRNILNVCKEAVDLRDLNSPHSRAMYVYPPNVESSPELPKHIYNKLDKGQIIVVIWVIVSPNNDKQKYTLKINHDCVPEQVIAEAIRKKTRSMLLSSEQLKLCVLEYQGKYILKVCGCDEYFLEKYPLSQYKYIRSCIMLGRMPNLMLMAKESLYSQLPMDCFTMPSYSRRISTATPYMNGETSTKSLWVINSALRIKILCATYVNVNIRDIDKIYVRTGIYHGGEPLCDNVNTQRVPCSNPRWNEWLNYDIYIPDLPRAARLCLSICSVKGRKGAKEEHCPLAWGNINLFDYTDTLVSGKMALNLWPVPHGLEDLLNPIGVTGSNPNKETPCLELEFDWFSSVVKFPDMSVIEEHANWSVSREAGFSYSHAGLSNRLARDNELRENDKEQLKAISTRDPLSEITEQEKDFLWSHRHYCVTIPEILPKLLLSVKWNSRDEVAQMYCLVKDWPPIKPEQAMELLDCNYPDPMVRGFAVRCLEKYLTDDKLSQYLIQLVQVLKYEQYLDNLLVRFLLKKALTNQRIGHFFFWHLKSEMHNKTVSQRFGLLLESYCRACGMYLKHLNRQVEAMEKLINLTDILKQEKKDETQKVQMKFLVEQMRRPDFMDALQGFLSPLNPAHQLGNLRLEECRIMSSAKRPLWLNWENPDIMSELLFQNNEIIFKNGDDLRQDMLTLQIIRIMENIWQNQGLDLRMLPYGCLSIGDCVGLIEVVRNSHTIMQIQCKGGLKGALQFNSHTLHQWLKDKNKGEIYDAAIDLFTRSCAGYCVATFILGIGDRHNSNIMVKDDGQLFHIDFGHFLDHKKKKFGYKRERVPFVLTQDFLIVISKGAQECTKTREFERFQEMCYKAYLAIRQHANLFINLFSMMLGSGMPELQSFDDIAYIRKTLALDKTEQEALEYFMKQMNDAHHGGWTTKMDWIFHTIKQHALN

Phosphatidylinositol 4,5-bisphosphate 3-kinase catalytic subunit beta isoform, sequence (P42338 whole entry, canonical isoform): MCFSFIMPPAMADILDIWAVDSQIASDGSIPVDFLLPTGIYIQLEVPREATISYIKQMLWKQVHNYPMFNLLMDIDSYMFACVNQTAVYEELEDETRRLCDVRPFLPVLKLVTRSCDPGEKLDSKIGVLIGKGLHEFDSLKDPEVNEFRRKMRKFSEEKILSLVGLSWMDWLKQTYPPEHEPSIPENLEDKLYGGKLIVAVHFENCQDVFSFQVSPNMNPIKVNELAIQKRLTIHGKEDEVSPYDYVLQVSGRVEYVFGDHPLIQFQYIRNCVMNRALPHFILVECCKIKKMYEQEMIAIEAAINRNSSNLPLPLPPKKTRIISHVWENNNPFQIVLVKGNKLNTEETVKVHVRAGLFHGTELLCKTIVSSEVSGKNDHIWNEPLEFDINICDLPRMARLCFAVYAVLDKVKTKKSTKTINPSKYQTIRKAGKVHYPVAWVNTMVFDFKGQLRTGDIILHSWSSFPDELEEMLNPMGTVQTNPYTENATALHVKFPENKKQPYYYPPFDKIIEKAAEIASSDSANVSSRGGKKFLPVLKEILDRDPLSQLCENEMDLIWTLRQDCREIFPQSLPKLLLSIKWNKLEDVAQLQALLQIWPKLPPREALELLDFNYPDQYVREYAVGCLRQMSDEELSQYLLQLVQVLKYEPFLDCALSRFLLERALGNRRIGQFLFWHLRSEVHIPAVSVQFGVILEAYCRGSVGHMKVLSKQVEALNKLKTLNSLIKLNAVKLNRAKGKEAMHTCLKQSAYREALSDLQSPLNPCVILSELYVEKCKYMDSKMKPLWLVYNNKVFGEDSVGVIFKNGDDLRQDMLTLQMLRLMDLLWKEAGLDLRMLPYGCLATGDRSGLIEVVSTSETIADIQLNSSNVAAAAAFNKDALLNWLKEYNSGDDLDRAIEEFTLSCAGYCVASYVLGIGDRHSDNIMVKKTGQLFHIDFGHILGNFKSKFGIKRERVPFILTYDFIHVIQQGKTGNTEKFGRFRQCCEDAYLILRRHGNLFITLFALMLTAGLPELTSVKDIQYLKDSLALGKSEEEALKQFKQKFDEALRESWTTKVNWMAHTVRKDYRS
PI3-kinase p110-delta/p85-alpha, sequence (P27986 whole entry): as the sequence (P27986 whole entry) above
PI3-kinase p110-delta/p85-alpha, sequence (O00329 whole entry): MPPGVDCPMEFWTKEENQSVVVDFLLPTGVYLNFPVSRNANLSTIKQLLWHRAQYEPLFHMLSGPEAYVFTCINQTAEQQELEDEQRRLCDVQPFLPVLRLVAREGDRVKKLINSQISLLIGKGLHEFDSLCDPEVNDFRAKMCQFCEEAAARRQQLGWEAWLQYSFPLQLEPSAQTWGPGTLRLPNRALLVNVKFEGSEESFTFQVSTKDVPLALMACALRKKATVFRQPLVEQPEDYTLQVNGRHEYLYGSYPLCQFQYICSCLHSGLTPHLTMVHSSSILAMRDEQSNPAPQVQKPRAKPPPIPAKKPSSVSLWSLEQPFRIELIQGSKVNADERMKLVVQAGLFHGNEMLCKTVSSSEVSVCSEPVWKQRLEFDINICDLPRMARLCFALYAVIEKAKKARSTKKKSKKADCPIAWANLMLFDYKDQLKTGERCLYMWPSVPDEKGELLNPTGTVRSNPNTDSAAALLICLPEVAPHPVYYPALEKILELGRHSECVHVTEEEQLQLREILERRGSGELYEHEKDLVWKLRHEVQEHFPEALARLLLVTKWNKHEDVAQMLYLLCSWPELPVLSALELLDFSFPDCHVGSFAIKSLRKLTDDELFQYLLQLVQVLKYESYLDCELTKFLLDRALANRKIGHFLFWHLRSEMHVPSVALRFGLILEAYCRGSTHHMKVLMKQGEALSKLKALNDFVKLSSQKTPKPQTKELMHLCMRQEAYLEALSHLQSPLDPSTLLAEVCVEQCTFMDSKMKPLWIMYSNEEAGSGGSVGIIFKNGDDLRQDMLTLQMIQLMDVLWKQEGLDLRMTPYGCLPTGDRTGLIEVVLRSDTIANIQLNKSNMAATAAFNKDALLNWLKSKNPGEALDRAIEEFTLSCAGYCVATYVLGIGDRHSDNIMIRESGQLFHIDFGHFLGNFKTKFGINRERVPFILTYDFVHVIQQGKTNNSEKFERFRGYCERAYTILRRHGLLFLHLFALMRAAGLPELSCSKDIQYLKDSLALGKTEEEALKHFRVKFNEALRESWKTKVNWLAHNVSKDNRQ
Phosphatidylinositol 4,5-bisphosphate 3-kinase catalytic subunit gamma isoform, sequence (P48736 whole entry, canonical isoform): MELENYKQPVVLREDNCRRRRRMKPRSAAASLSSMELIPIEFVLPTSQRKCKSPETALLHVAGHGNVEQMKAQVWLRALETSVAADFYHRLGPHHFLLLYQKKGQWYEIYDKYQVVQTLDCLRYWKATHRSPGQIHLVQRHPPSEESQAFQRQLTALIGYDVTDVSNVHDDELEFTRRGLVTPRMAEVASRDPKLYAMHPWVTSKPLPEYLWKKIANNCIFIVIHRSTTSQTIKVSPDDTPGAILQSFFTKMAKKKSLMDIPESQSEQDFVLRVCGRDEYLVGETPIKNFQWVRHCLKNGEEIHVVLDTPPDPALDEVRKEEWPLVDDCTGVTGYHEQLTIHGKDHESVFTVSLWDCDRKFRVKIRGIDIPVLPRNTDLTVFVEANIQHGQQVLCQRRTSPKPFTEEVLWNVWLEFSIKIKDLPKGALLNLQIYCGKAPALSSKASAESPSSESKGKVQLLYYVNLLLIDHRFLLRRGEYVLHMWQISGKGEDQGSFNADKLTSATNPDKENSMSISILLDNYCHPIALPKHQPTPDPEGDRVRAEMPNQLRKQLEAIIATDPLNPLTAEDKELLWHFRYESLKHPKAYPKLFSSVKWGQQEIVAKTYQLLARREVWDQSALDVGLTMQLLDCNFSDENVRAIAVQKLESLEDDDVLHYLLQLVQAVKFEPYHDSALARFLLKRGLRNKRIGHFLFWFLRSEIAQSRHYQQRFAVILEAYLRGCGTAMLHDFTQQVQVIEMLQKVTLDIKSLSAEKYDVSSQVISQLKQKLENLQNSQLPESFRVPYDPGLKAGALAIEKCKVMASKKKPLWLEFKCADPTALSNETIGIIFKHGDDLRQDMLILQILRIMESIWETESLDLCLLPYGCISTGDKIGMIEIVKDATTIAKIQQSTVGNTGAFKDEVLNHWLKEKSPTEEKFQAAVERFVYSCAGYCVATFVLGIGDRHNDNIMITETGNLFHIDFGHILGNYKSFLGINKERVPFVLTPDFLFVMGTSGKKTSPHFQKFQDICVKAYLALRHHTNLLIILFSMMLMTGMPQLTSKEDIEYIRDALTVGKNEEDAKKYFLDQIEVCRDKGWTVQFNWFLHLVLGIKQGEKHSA

For O=S(=O)(Nc1cc(-c2cnc3[nH]c(-c4ccccc4)cc3c2)cnc1Cl)c1ccccc1, the IC50 [1] was 268 nM.
O=S(=O)(Nc1cc(-c2cnc3[nH]ncc3c2)cnc1Cl)c1ccccc1 showed an IC50 [1] of 37 nM, a GI50 [2] of 1090 nM and a GI50 [3] of 4400 nM. The GI50 [4] was 1160 nM, the GI50 [5] was 7610 nM and the GI50 [6] was 7400 nM. For the same molecule, the GI50 [7] was 8940 nM, the IC50 [8] was 29 nM and the IC50 [9] was 1 nM. It also gave an IC50 [10] of 51 nM.
O=S(=O)(Nc1cc(-c2cnc3[nH]cc(-c4ccccc4)c3c2)cnc1Cl)c1ccccc1 showed an IC50 [1] of 15 nM, a GI50 [2] of 1830 nM and a GI50 [3] of 7720 nM. For the same molecule, the GI50 [4] was 1520 nM, the GI50 [5] was > 10000 nM and the GI50 [6] was > 10000 nM. For the same molecule, the GI50 [7] was > 10000 nM, the IC50 [8] was 39 nM and the IC50 [9] was 1 nM. The IC50 [10] was 2 nM.
Molecule Cc1ncc(-c2ccc(N)nc2)cc1NS(=O)(=O)c1ccccc1 has an IC50 [1] of 381 nM.
For O=C(Nc1ccc(-c2cnc(Cl)c(NS(=O)(=O)c3ccccc3)c2)cn1)C1CC1, the IC50 [1] was 445 nM.
With Nc1ccc(-c2cncc(NS(=O)(=O)c3ccccc3)c2)cn1 the IC50 [1] was 1590 nM.
O=S(=O)(Nc1cc(-c2cnc3[nH]cc(-c4ccncc4)c3c2)cnc1Cl)c1ccc(F)cc1 showed an IC50 [1] of 0.7 nM, a GI50 [2] of 370 nM and a GI50 [3] of 1300 nM. The GI50 [4] was 410 nM, the GI50 [5] was 6190 nM and the GI50 [6] was 2910 nM. The GI50 [7] was > 10000 nM, the IC50 [8] was 2 nM and the IC50 [9] was 0.4 nM. It also gave an IC50 [10] of 1 nM.
COc1ncc(-c2ccc(N)nc2)cc1NS(=O)(=O)c1ccccc1 gave an IC50 [1] of 2060 nM.
CN(C)C(=O)Nc1ccc(-c2cnc(Cl)c(NS(=O)(=O)c3ccccc3)c2)cn1 gave an IC50 [1] of 68 nM.
CCc1cc2cc(-c3cnc(Cl)c(NS(=O)(=O)c4ccccc4)c3)cnc2[nH]1 gave an IC50 [1] of 155 nM.
Cc1cc2cc(-c3cnc(Cl)c(NS(=O)(=O)c4ccccc4)c3)cnc2[nH]1 was tested, and the IC50 [1] was 63 nM.
Work on CS(=O)(=O)Nc1ccc(-c2cnc(Cl)c(NS(=O)(=O)c3ccccc3)c2)cn1 yielded an IC50 [1] of 4750 nM.
Nc1ccc(-c2cnc(Cl)c(NS(=O)(=O)c3ccccc3)c2)cn1 showed an IC50 [1] of 375 nM.
In the case of O=S(=O)(Nc1cc(-c2cnc3[nH]nc(-c4ccncc4)c3c2)cnc1Cl)c1ccccc1, the IC50 [1] is reported as 7 nM, the GI50 [2] is reported as 170 nM and the GI50 [3] is reported as 520 nM. It also gave a GI50 [4] of 150 nM, a GI50 [5] of 2500 nM and a GI50 [6] of 690 nM. It also gave a GI50 [7] of 3120 nM, an IC50 [8] of 4 nM and an IC50 [9] of 0.7 nM. For the same molecule, the IC50 [10] was 1 nM.
O=S(=O)(Nc1cc(-c2cnc3[nH]cc(-c4ccncc4)c3c2)cnc1Cl)c1ccccc1F was tested, and the IC50 [1] was 0.7 nM, the GI50 [2] was 350 nM and the GI50 [3] was 1790 nM. The GI50 [4] was 290 nM, the GI50 [5] was > 10000 nM and the GI50 [6] was 2500 nM. The GI50 [7] was 7130 nM, the IC50 [8] was 3 nM and the IC50 [9] was 0.5 nM. It also gave an IC50 [10] of 1 nM.
Work on Nc1ccc(-c2cnc(N)c(NS(=O)(=O)c3ccccc3)c2)cn1 yielded an IC50 [1] of 2970 nM.
O=S(=O)(Nc1cc(-c2cnc3[nH]ccc3c2)cnc1Cl)c1ccccc1 was tested, and the IC50 [1] was 97 nM, the GI50 [2] was 6710 nM and the GI50 [3] was > 10000 nM. The GI50 [4] was 5500 nM, the GI50 [5] was > 10000 nM and the GI50 [6] was > 10000 nM. The GI50 [7] was > 10000 nM, the IC50 [8] was 35 nM and the IC50 [9] was 1 nM. The IC50 [10] was 35 nM.
Molecule O=S(=O)(Nc1cc(-c2cnc3[nH]nc(-c4ccccc4)c3c2)cnc1Cl)c1ccccc1 has an IC50 [1] of 17 nM, a GI50 [2] of 1230 nM and a GI50 [3] of 4190 nM. For the same molecule, the GI50 [4] was 1300 nM, the GI50 [5] was 8650 nM and the GI50 [6] was 7370 nM. The GI50 [7] was > 10000 nM, the IC50 [8] was 6 nM and the IC50 [9] was 1 nM. The IC50 [10] was 2 nM.
Work on CCNc1ccc(-c2cnc(Cl)c(NS(=O)(=O)c3ccccc3)c2)cn1 yielded an IC50 [1] of 1490 nM.
In the case of O=S(=O)(Nc1cc(-c2cnc3[nH]cc(-c4ccncc4)c3c2)cnc1Cl)c1ccccc1, the IC50 [1] is reported as 0.5 nM, the GI50 [2] is reported as 120 nM and the GI50 [3] is reported as 1500 nM. The GI50 [4] was 100 nM, the GI50 [5] was 3900 nM and the GI50 [6] was 2140 nM. For the same molecule, the GI50 [7] was 8950 nM, the IC50 [8] was 2 nM and the IC50 [9] was 0.6 nM. It also gave an IC50 [10] of 1 nM.
CC(=O)Nc1ccc(-c2cnc(Cl)c(NS(=O)(=O)c3ccccc3)c2)cn1 gave an IC50 [1] of 420 nM.
Cn1c(=O)n(-c2ccc(C(C)(C)C#N)cc2)c2c3cc(-c4cnc5ccccc5c4)ccc3ncc21 [DACTOLISIB] was tested, and the GI50 [3] was 300 nM, the GI50 [5] was 610 nM and the GI50 [6] was 60 nM. It also gave a GI50 [7] of 280 nM.
With CC[C@H](Nc1ncnc2[nH]cnc12)c1nc2cccc(F)c2c(=O)n1-c1ccccc1 [IDELALISIB] the GI50 [2] was 680 nM and the GI50 [4] was 740 nM.
